Reference: patent publication US20100062078A1, “PHARMACEUTICAL COMPOSITION FOR TREATING CANCER AND THE SIGNALING PATHWAY THEREOF” (priority 2008, published 2010)

How the values were obtained:
Hep 3B = assay: XTT cell proliferation assay (growth inhibition); assay type: cell-based, human
Procedure: (§1) Cells were seeded at 7×10^3 per well in 96-well culture plates before treatment with different concentrations of protoapigenone for 12, 24 and/or 48 hours. Next, the cytotoxicity of protoapigenone was determined using XTT cell proliferation assay (Sigma, St. Louis, Mo.). The absorbance of wavelength at 490 nm (OD490) and 650 nm (OD650) were determined respectively by enzyme-linked immunosorbent assay (ELISA) reader, and 50% of inhibitory concentration (IC50) was calculated by the value of OD490-OD650. In addition, in order to evaluate the long-term effect, the cells were treated with different concentration of protoapigenone for 3 hours, then were incubated with fresh medium for 14 days so as to form colonies. Finally, the cells were stained with crystal violet and were observed under the microscope.

LNCap = assay: XTT cell proliferation assay (growth inhibition); assay type: cell-based, human; details: Homo sapiens; LNCap, 48-hour treatment
Procedure: as §1

RT4 = assay: XTT cell proliferation assay (growth inhibition); assay type: cell-based, human
Procedure: as §1

T24 = assay: XTT cell proliferation assay (growth inhibition); assay type: cell-based, human
Procedure: as §1

[1] = Body weight, complete blood count and biochemical profile of MDAH-2774-xenografted nude mice; assay type: in vivo; details: for Creatine / Got (glutamic-oxaloacetic transaminase) / Gpt (glutamic-pyruvic transaminase) / HCT (hematocrit) / MCV (mean corpuscular volume) / PLT / RBC / WBC / Body weight: MDAH-2774 xenograft
[2] = Body weight, complete blood count and biochemical profile of LNCap-xenografted nude mice; assay type: in vivo; details: for BUN / Creatine / Got (glutamic-oxaloacetic transaminase) / Gpt (glutamic-pyruvic transaminase) / MCV (mean corpuscular volume) / RBC / WBC / Body weight: LNCap xenograft
Procedure: MDAH-2774 human ovarian cancer cells of 2×10^6 (or LNCap prostate cancer cells of 1×10^6) in 0.1 ml PBS were injected subcutaneously at the right flank of 6-week-old female nude mice (Foxnlun/Foxulun). When tumors became visible (approximately 3×3 mm in size), the mice were randomly grouped and treated intraperitoneally with protoapigenone or vehicle every other day. […] Tumor size and body weight were measured twice a week using calipers, and their tumor volumes were calculated according to a standard formula: width^2×length/2. After treatment with protoapigenone for 5 weeks, the mice xenografted with LNCap cells were sacrificed by deep anesthesia, and the blood sampling by cardiac aspiration was done immediately after anesthesia. Complete blood count of the nude mice blood was determined by Sysmex XE-2100 (TOA Medical Electronics, Kobe, Japan), and the plasma blood urea nitrogen (BUN), creatine (Cr), asparatate aminotransferase (AST), and alanine aminotransferase (ALT) levels were determined by Beckman LX20 (Beckman-Coulter, U.S.A.)

MDAH-2774 = assay: Cell cycle and sub-G1 analysis (PI flow cytometry); assay type: cell-based, human; details: MDAH-2774, 24 hours
Procedure: (§2) The ovarian cancer cells and the prostate cancer cells respectively were treated with protoapigenone at different concentrations (0, 2.5, 5 and 10 μM) for 24 hours and 6 hours (or 12 hours). These cells were harvested by trypsin and fixed with 70% ethanol for 1 hour, washed with phosphate buffered saline (PBS) twice, and resuspended in propidium iodide (PI)/RNase A solution for 30 minutes. In accordance with the mechanism of DNA stained with propidium iodide, the cell cycle and sub-G1 distribution were detected by the FACScan flow cytometry (Becton Dickinson, San Jose, Calif.), and data analysis was done with CellQuest software (BD Bioscience).

SKOV3 = assay: Cell cycle and sub-G1 analysis (PI flow cytometry); assay type: cell-based, human; details: SKOV3, 24 hours
Procedure: as §2

JNK½ = assay: Immunoblotting, phosphorylation in LNCap cells; assay type: cell-based, human; details: exposure for 1 hour
Text: (§3) The concentration of protein supernatant was further determined using the Bio-Rad protein assay kit (Bio-Rad Laboratories, Hercules, Calif.). Whole cell lysates were separated on polyacrylamide sodium dodecyl sulfate (SDS) gels and the proteins were transferred onto the nitrocellulose membrane. Proteins were detected sequentially by the specific primary antibodies, followed by peroxidase-conjugated secondary antibodies, and visualized by the Enhanced chemiluminescence detection system (Amersham, N.J.).

p38 MAPK = assay: Immunoblotting, phosphorylation in LNCap cells; assay type: cell-based, human; details: LNCap, exposure for 1 hour
Text: as §3

- IC50 (LNCap): 3.7 ± 0.2 µM
- IC50 (T24; Homo sapiens, T-24, bladder cancer T24): 5.52 ± 0.598 µM
Structure (SMILES): O=C1C=CC(O)(c2cc(=O)c3c(O)cc(O)cc3o2)C=C1 [protoapigenone]
- growth inhibition (Hep 3B; Hep 3B, various concentrations): dose-dependent and time-dependent
- IC50 (Hep 3B; Hep3B, human hepatocellular carcinoma Hep 3B): 1.86 µM
- survival rate of RT4 cells (RT4; 4 μM and 8 μM, 24 and 48 hours): decreased
- IC50 (RT4; RT-4, human urinary bladder transitional cell papilloma RT4): 5.11 ± 3.25 µM
- survival rate of RT4 cells (RT4; low concentrations (0.5, 1 and 2 μM)): over 100%
- growth inhibition (T24; T24, various concentrations): dose-dependent and time-dependent
- impairment of hematopoiesis, liver function, or renal function ([1]; MDAH-2774-xenografted nude mice, intraperitoneal injection, 7 weeks): no significant impairment
- Creatine ([1]; high dose, 7 weeks): 0.5 ± 0.0 mg/dL
- Got (glutamic-oxaloacetic transaminase) ([1]; high dose, 7 weeks): 148.2 ± 59.3 U/L
- Gpt (glutamic-pyruvic transaminase) ([1]; high dose, 7 weeks): 52.0 ± 17.6 U/L
- HCT (hematocrit) ([1]; high dose, 7 weeks): 46.1 ± 1.8%
- MCV (mean corpuscular volume) ([1]; high dose, 7 weeks): 50.9 ± 0.9 fL
- PLT ([1]; high dose, 7 weeks): 916.3 ± 100.5 10 × 3/μl
- RBC ([1]; high dose, 7 weeks): 9.1 ± 0.3 10^6/µL
- WBC ([1]; high dose, 7 weeks): 2.0 ± 0.9 10 × 3/μl
- Body weight ([1]; high dose, after treatment (7 weeks)): 19.8 ± 1.1 g
- Body weight ([1]; high dose, before treatment): 19.6 ± 0.8 g
- Creatine ([1]; low dose, 7 weeks): 0.5 ± 0.0 mg/dL
- Got (glutamic-oxaloacetic transaminase) ([1]; low dose, 7 weeks): 119.5 ± 45.5 U/L
- Gpt (glutamic-pyruvic transaminase) ([1]; low dose, 7 weeks): 46.3 ± 16.7 U/L
- HCT (hematocrit) ([1]; low dose, 7 weeks): 43.5 ± 3.6%
- MCV (mean corpuscular volume) ([1]; low dose, 7 weeks): 56.2 ± 8.9 fL
- PLT ([1]; low dose, 7 weeks): 1094.5 ± 124.9 10 × 3/μl
- RBC ([1]; low dose, 7 weeks): 7.8 ± 1.4 10^6/µL
- WBC ([1]; low dose, 7 weeks): 2.6 ± 1.2 10 × 3/μl
- Body weight ([1]; low dose, after treatment (7 weeks)): 19.4 ± 0.1 g
- Body weight ([1]; low dose, before treatment): 19.6 ± 0.6 g
- BUN ([2]; high dose, 5 weeks): 24.8 ± 9.0 mg/dL
- Creatine ([2]; high dose, 5 weeks): 0.48 ± 0.10 mg/dL
- Got (glutamic-oxaloacetic transaminase) ([2]; high dose, 5 weeks): 630.7 ± 165.5 U/L
- Gpt (glutamic-pyruvic transaminase) ([2]; high dose, 5 weeks): 137.3 ± 55.8 U/L
- MCV (mean corpuscular volume) ([2]; high dose, 5 weeks): 47.7 ± 0.9 fL
- RBC ([2]; high dose, 5 weeks): 7.3 ± 0.7 10^6/µL
- WBC ([2]; high dose, 5 weeks): 2.7 ± 1.0 10 × 3/μl
- Body weight ([2]; high dose, after treatment (5 weeks)): 13.5 ± 0.6 g
- Body weight ([2]; high dose, before treatment): 11.5 ± 0.8 g
- BUN ([2]; low dose, 5 weeks): 23.9 ± 3.2 mg/dL
- Creatine ([2]; low dose, 5 weeks): 0.43 ± 0.05 mg/dL
- Got (glutamic-oxaloacetic transaminase) ([2]; low dose, 5 weeks): 520.5 ± 169.9 U/L
- Gpt (glutamic-pyruvic transaminase) ([2]; low dose, 5 weeks): 130.0 ± 119.9 U/L
- MCV (mean corpuscular volume) ([2]; low dose, 5 weeks): 46.8 ± 0.8 fL
- RBC ([2]; low dose, 5 weeks): 7.3 ± 0.6 10^6/µL
- WBC ([2]; low dose, 5 weeks): 2.3 ± 0.7 10 × 3/μl
- Body weight ([2]; low dose, after treatment (5 weeks)): 13.6 ± 1.2 g
- Body weight ([2]; low dose, before treatment): 11.8 ± 0.4 g
- body weight, control vs protoapigenone-treated group ([2]; LNCap-xenografted nude mice, 5 weeks): no significant difference
- impairment of hematopoiesis, liver function, or renal function ([2]; LNCap-xenografted nude mice, intraperitoneal injection, 5 weeks): No significant impairment
- apoptotic sub-G1 peak (MDAH-2774): increases the apoptotic sub-G1 peak
- cell cycle distribution (MDAH-2774; various concentrations): enter into S and G2/M phases
- apoptotic sub-G1 peak (SKOV3): increases the apoptotic sub-G1 peak
- cell cycle distribution (SKOV3; various concentrations): enter into S and G2/M phases
- phosphorylation of JNK½ (JNK½): dramatic increase
- phosphorylation of p38 MAPK (p38 MAPK): dramatic increase
